In data set [1] the target is T1, human GIP receptor (hGIP-R) (Homo sapiens, UniProt P48546).
T1 construct: expressed in transfected cells; host or cells: HEK-293 clonal cell line
T1 sequence (P48546 22-466): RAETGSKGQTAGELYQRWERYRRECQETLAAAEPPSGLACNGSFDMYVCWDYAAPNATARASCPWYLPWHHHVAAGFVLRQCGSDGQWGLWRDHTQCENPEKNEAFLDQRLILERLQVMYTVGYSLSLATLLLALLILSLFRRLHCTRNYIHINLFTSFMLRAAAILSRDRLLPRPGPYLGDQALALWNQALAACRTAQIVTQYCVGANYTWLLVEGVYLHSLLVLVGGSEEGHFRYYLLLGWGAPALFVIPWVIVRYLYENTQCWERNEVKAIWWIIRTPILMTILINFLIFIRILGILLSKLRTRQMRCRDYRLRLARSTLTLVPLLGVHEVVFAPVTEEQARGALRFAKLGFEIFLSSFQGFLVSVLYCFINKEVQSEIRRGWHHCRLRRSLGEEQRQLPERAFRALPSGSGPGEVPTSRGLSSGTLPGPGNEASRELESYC
The data set is described as follows: cAMP functional activity assay, hGIP-R HEK-293 cells. Type of data set: cell-based. As to conditions: for Emax at 9.95 µM: HEK293, percent of response to 10 nM GIP(1-42)NH2, Examples at 9.95 μM, read-out: Emax hGIPR; for EC50: in the presence of FBS and BSA, read-out: cAMP EC50 hGIPR. Here is the method: (§1) After a sixty-minute incubation at room temperature, the resulting increase in intracellular cAMP is quantitatively determined using a cAMP Dynamic 2 HTRF Assay Kit (62AM4PEJ; CisBio; Codolet, FR). Briefly, cAMP levels within the cell are detected by adding a cAMP-d2 conjugate in cell lysis buffer (10 μl) followed by an anti-cAMP-Eu3+-Cryptate antibody, also in cell lysis buffer (10 μl). […] A relative EC50 value and percent top (Emax) are derived by non-linear regression analysis using the percent maximal response vs. the concentration of peptide added, fitted to a four-parameter logistic equation.

Data set [2] addresses T2, human GLP-1 receptor (hGLP-1R) (Homo sapiens, UniProt P43220).
T2 construct: expressed in transfected cells; host or cells: HEK-293 clonal cell line
The data set is described as follows: cAMP functional activity assay, hGLP-1R HEK-293 cells. The format is cell-based. As to conditions: HEK293; percent of response to 10 nM GLP-1(7-36)NH2; mean ± SEM.

Data set [3] is described as follows: in vivo. As to conditions: male, Yucatan miniature swine, pig, sc, 10 ug/kg. As to the method: 1. […] The compounds and an analog as an internal standard are extracted from […] by antibody or protein precipitations. The intact mass of the compounds are detected by a Q Exactive® Orbitrap® Mass Spectrometer (Thermo Fisher Scientific; Waltham, Mass.). 2. […] Blood is collected at pre-dose, 2, 5, 10, 15, 20, 25, 30, 45, 60, 75, 90, 120 and 150 minutes post-dose, and plasma is obtained for pharmacokinetic characterization. […] Blood is collected at pre-dose, 2, 5, 10, 15, 20, 25, 30, 45, 60, 75, 90, 120 and 150 minutes postdose, and plasma is obtained for pharmacokinetic characterization.

For data set [4], the system named is CD8+ T cell-depleted peripheral blood mononuclear cells (CD4+ T cells). The data set is described as follows: CD4+ T cell assay (immunogenicity). The format is cell-based, human. As to conditions: Cell Division Index; positive donors only. As to the method: 1. CD4+ T Cell Assay: to assess the propensity for a clinical immunogenic response to the G compounds of Examples 1-4, CD8+ T cell-depleted peripheral blood mononuclear cells (PBMC's) are prepared and labeled with carboxyfluorescein diacetate succinimidyl ester (CFSE; Invitrogen) from a cohort of 10 healthy donors with diverse human leukocyte antigen (HLA) class II haplotypes. Each donor is tested in triplicate with 2.0 mL media control, keyhole limpet haemocyanin (KLH; 0.33 μM), and the compounds of Examples 1-4 (10 μM). Cultures are incubated for 7 days at 37° C. with 5% CO2. On day 7, samples are analyzed by flow cytometry using a BD LSR II Fortessa (Becton Dickinson; Franklin Lakes, N.J.), equipped with a high throughput sampler (HTS). Data is analyzed using FlowJo® Software (FlowJo, LLC/TreeStar; Ashland, Oreg.).
Protein therapeutics that induce less than 30% positive response in the CD4+ T cell proliferation assay are associated with a low risk of immunogenicity.

Data set [5] deals with T3, hGCGR (Homo sapiens, UniProt P47871).
T3 construct: expressed in transfected cells; host or cells: HEK-293 clonal cell line
T3 sequence (P47871 26-477): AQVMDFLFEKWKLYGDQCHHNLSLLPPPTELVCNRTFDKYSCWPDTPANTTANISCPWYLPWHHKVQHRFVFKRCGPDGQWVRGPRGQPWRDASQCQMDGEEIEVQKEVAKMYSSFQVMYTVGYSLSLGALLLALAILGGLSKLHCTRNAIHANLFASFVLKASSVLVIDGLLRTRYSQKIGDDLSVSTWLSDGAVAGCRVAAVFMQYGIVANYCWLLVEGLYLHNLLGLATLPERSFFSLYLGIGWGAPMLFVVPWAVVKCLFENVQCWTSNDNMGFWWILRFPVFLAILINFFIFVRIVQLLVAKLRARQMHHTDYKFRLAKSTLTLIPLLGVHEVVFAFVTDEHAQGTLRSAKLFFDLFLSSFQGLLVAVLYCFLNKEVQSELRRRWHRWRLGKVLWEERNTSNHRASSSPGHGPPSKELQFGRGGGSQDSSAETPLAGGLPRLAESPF
Nature of the data set: cAMP functional activity assay, hGCGR HEK-293 cells. As to conditions: HEK293; percent of response to 1 nM Glucagon; mean ± SEM. Type of data set: cell-based. As to the method:
as §1

Data set [6] addresses T4, human GLP-2 receptor (human, UniProt O95838 1-553).
T4 sequence (looked up): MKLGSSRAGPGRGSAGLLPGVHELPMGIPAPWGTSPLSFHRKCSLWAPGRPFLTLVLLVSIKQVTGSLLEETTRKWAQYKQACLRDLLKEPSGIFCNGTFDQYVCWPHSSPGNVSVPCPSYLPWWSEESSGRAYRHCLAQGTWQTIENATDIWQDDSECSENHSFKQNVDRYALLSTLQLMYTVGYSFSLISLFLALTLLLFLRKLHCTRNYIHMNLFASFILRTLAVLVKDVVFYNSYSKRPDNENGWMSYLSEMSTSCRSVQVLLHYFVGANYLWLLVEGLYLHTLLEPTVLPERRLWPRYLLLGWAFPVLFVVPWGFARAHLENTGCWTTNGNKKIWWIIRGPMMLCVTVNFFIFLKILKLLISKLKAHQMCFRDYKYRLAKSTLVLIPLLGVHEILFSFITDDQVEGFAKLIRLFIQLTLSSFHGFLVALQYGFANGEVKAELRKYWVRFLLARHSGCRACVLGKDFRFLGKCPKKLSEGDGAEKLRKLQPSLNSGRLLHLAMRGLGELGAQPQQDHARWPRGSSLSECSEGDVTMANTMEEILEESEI
The data set is described as follows: cell-based or functional assay.

Where a SMILES comes first, the peptide text is derived from it. Where no end group is shown, it is not given here. [ ]: non-standard residue; d: D form. 4Pal = N[C@@H](Cc1ccncc1)C(=O)O; Dab = NCC[C@H](N)C(=O)O; Aib = CC(C)(N)C(=O)O Where only a bound is given, the exact number is not on record here.

T2 sequence (P43220 24-463): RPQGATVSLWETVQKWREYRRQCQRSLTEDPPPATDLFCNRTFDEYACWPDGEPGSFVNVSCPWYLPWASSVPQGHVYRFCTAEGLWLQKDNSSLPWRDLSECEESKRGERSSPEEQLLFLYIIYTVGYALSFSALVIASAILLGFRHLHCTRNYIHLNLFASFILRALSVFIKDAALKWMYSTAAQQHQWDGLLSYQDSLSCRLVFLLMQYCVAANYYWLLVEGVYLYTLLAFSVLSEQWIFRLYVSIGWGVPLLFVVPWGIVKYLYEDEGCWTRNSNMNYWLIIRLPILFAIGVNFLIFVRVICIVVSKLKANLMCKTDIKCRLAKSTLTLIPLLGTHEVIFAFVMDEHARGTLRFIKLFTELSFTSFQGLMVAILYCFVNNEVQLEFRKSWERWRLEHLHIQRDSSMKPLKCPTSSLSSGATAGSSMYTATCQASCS

The term Emax denotes the maximal effect, on the per cent scale that the assay sets. As a reminder, the EC50 is the concentration that produces a half-maximal response. By Cmax is commonly meant the maximum level reached in the sampled fluid or tissue. By half-life is commonly meant the time needed for the level to fall by half in the phase considered. For `CC(=O)NCC[C@H](NC(=O)[C@H](CO)NC(=O)[C@@H](N)Cc1c[nH]cn1)C(=O)NCC(=O)N[C@H](C(=O)N[C@@H](Cc1ccccc1)C(=O)N[C@H](C(=O)N[C@@H](CO)C(=O)N[C@@H](CC(=O)O)C(=O)N[C@@H](Cc1ccc(O)cc1)C(=O)N[C@@H](CO)C(=O)N[C@@H](CCCCN)C(=O)N[C@@H](Cc1ccc(O)cc1)C(=O)N[C@@H](CC(C)C)C(=O)N[C@@H](CC(=O)O)C(=O)NC(C)(C)C(=O)N[C@@H](CCCNC(=N)N)C(=O)N[C@@H](CCCNC(=N)N)C(=O)N[C@@H](C)C(=O)N[C@@H](CCC(N)=O)C(=O)N[C@@H](C)C(=O)N[C@@H](Cc1ccccc1)C(=O)N[C@H](C(=O)N[C@@H](CCCCN)C(=O)N[C@@H](Cc1ccncc1)C(=O)N[C@@H](CC(C)C)C(=O)N[C@@H](CC(C)C)C(=O)N[C@@H](CO)C(=O)N[C@H](C(=O)O)[C@@H](C)O)C(C)C)[C@@H](C)O)[C@@H](C)O` [Example 3], in data set [1], the Emax at 9.95 µM is less than 5% and the concentration for a half-maximal effect (EC50) was more than 9.95 µM. The maximal response (Emax) in data set [2] was determined as 109 ± 5%. Further, in data set [3] (Cmax), the highest level (Cmax) was 1.8 ng/mL. The molecule further gave a half-life in data set [3] (T1/2) of 26.8 min. For the same molecule, the “Median Response Strength in positive donors (CDI)” value in data set [4] was found to be 6.5.

The Tmax is the time at which the peak concentration occurs. Take `CC(=O)NCC[C@H](NC(=O)[C@H](CO)NC(=O)[C@@H](N)Cc1c[nH]cn1)C(=O)NCC(=O)N[C@H](C(=O)N[C@@H](Cc1ccccc1)C(=O)N[C@H](C(=O)N[C@@H](CO)C(=O)N[C@@H](CC(=O)O)C(=O)N[C@@H](Cc1ccc(O)cc1)C(=O)N[C@@H](CO)C(=O)N[C@@H](CCCCN)C(=O)N[C@@H](Cc1ccc(O)cc1)C(=O)N[C@@H](CC(C)C)C(=O)N[C@@H](CC(=O)O)C(=O)NC(C)(C)C(=O)N[C@@H](CCCNC(=N)N)C(=O)N[C@@H](CCCNC(=N)N)C(=O)N[C@@H](C)C(=O)N[C@@H](CCC(N)=O)C(=O)N[C@@H](CCC(N)=O)C(=O)N[C@@H](Cc1ccccc1)C(=O)N[C@H](C(=O)N[C@@H](CCCCN)C(=O)N[C@@H](Cc1ccncc1)C(=O)N[C@@H](CC(C)C)C(=O)N[C@@H](CC(C)C)C(=O)N[C@@H](CO)C(=O)N[C@H](C(=O)O)[C@@H](C)O)C(C)C)[C@@H](C)O)[C@@H](C)O` [Example 4] (H-HS[Dab](Ac)GTFTSDYSKYLD[Aib]RRAQQFVK[4Pal]LLST-OH; N-terminus assumed): the Emax at 9.95 µM in data set [1] was less than 5%. In addition, in data set [1], the EC50 was more than 9.95 µM. Moreover, the Emax was 100 ± 5% in data set [2] and 98 ± 2% in data set [5]. Also, in data set [3], the Tmax is 25 min. Further, the “Median Response Strength in positive donors (CDI)” value in data set [4] was found to be 6.42.

Turning to `CC(C)C[C@H](NC(=O)[C@H](Cc1ccncc1)NC(=O)[C@H](CCCCN)NC(=O)[C@@H](NC(=O)[C@H](Cc1ccccc1)NC(=O)[C@H](CCC(N)=O)NC(=O)[C@H](CCC(N)=O)NC(=O)[C@H](C)NC(=O)[C@H](CCCNC(=N)N)NC(=O)[C@H](CCCNC(=N)N)NC(=O)C(C)(C)NC(=O)[C@H](CC(=O)O)NC(=O)[C@H](CC(C)C)NC(=O)[C@H](Cc1ccc(O)cc1)NC(=O)[C@H](CCCCN)NC(=O)[C@H](CO)NC(=O)[C@H](Cc1ccc(O)cc1)NC(=O)[C@H](CC(=O)O)NC(=O)[C@H](CO)NC(=O)[C@@H](NC(=O)[C@H](Cc1ccccc1)NC(=O)[C@@H](NC(=O)CNC(=O)[C@H](CCC(N)=O)NC(=O)[C@H](CO)NC(=O)[C@@H](N)Cc1c[nH]cn1)[C@@H](C)O)[C@@H](C)O)C(C)C)C(=O)N[C@@H](CC(C)C)C(=O)N[C@@H](CO)C(=O)N[C@H](C(=O)O)[C@@H](C)O` [Example 1] (H-HSQGTFTSDYSKYLD[Aib]RRAQQFVK[4Pal]LLST-OH; N-terminus assumed), the maximum response (Emax) at 9.95 µM in data set [1] was less than 5%. Besides, the EC50 in data set [1] was more than 9.95 µM. The Emax in data set [2] was found to be 105 ± 2%; in data set [5], 103 ± 2%. The Tmax in data set [3] was 20 min.

B1: GLP-2 (1-34) acid (peptide)
peptide: HADGSFSDEMNTILDNLAARDFINWLIQTKITDR-OH
As to B1, the “cAMP EC50” value in data set [6] is 0.016 nM.

These data come from patent publication US20220125885A1, “GLUCAGON ANALOG AGONISTS AND METHODS OF USING THE SAME” (Eli Lilly and Company, priority 2019, published 2022).
